The source of these data is publication PMC3688631 (ACS medicinal chemistry letters, 2013).

Assay [1] has as its system Akt phosphorylation in MDA-MB-468. The assay is described as follows: Cellular inhibition of Akt phosphorylation. In kind it is cell-based. Conditions: Homo sapiens, MDA-MB-468, read-out: inhibition of Akt phosphorylation IC50.
In a further assay the target is 96 kinases. The assay can be described thus: KinomeScan screen versus another 96 kinases. In kind it is binding.
The target in the next assay is PI3Kβ D862Q (Homo sapiens, UniProt P42338, D862Q). The settings on record: cited from earlier work.

pIC50: −log10 of the molar value.

Sequence of PI3Kβ D862Q (P42338 whole entry D862Q): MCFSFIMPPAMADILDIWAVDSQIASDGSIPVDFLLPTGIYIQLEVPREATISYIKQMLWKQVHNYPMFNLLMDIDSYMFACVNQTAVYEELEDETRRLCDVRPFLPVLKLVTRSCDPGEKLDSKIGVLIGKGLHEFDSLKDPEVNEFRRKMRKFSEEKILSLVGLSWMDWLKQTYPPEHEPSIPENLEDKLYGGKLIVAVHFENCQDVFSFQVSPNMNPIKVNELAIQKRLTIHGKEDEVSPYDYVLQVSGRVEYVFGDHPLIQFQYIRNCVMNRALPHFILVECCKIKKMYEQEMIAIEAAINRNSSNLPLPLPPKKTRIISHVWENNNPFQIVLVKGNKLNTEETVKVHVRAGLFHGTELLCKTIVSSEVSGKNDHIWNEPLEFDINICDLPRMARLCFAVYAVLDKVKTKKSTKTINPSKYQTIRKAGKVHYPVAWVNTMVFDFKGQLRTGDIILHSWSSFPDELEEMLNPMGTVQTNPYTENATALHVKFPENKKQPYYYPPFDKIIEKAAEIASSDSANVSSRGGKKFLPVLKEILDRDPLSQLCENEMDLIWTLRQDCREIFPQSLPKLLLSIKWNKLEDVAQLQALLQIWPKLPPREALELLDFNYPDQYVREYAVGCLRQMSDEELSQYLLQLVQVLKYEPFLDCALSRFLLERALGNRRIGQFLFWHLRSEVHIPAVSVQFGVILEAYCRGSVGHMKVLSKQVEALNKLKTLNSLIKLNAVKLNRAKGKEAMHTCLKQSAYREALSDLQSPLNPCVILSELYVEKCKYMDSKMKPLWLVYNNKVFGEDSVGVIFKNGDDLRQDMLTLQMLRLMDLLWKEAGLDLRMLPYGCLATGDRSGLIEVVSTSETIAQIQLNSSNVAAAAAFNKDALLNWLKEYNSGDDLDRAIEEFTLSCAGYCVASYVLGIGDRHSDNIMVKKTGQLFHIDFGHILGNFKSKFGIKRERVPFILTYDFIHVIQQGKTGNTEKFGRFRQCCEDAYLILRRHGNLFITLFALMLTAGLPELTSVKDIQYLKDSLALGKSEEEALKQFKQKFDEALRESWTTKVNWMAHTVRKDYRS
Sequence of PI3Kβ D862Q (P27986 whole entry partner): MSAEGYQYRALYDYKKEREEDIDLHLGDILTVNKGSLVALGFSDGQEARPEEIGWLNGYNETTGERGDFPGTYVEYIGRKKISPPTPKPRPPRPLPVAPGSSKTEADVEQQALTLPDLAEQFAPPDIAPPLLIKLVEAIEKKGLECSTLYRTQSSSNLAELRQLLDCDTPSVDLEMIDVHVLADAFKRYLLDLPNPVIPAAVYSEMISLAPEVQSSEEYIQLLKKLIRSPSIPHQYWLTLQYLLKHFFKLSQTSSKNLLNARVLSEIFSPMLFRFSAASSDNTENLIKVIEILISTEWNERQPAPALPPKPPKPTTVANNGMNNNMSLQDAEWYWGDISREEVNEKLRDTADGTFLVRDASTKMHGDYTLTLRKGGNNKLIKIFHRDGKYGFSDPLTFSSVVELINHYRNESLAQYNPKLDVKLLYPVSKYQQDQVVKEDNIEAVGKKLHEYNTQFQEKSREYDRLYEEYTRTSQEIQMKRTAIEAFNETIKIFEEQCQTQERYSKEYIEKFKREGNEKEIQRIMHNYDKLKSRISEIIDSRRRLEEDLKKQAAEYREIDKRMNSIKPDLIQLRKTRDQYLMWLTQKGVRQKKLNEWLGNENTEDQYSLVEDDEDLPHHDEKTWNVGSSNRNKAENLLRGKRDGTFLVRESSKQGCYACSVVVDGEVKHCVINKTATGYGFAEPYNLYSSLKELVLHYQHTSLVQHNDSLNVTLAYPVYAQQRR

As usually defined, the pIC50 is the negative decadic logarithm of the IC50, by convention in mol/L. For the molecule `N[C@@H](Cc1ccccc1)C(=O)N1CCN(c2nc(N3CCOCC3)nc(-n3c(C(F)F)nc4ccccc43)n2)CC1` [Compound 21], the negative-log IC50 (pIC50) in assay [1] was greater than 8.00. Also, the “KinomeScan binding affinity versus another 96 kinases” value at 96 kinases is listed as “only the class II PI3K PI3KC2β showed binding affinity comparable to that seen for PI3Kβ”.
Regarding `Cc1cc(C(C)Nc2ccccc2)c2nc(N3CCOCC3)cc(=O)n2c1` (stereo not drawn) [TGX221], the “effect of mutation D862Q in PI3Kβ on inhibition” value on PI3Kβ D862Q was “unaffected”.
